Results reported in ChEMBL document CHEMBL1131339 (J Med Chem, 1998).

How the values were obtained:
Melanophore [1] = assay: Inhibitory concentration against melatonin-induced pigment aggregation by 50% in Xenopus laevis dermal melanophore cell line; type: functional, cell-based, frog
Melanophore [2] = assay: Effective concentration required to produce 50% of the maximal pigment aggregation in Xenopus laevis dermal melanophore cell line; type: functional, cell-based, frog
Melatonin receptor = Melatonin receptor (Gallus gallus, UniProt P49288+P51050+P49285); assay: Binding affinity towards melatonin receptor, determined in chicken brain membranes using [2-125I]melatonin; type: cell membranes, Membrane
Melanophore [3] = assay: Effective concentration required to produce 50% of the maximal pigment aggregation in Xenopus laevis dermal melanophore cell line; No agonist effect detected at 100 uM; type: functional, cell-based, frog
Melanophore [4] = assay: Inhibitory concentration against melatonin-induced pigment aggregation by 50% in Xenopus laevis dermal melanophore cell line; Antagonism detected at 100 uM but IC50 not calculated; type: functional, cell-based, frog

Row | IC50 (Melanophore [1]) | EC50 (Melanophore [2]; Xenopus laevis, Melanophore) [nM] | Ki (Melatonin receptor) [nM] | EC50 (Melanophore [3]) | IC50 (Melanophore [4]) | EC50 (Melanophore [2]; melanophore) [nM] | Compound
1 | Not Active | 862 | 204 |  |  |  | CCC(=O)NCC1CCCc2c1c1ccccc1n2C (configuration not stated)
2 | Not Active | 0.31 | 1.44 |  |  |  | CCC(=O)NCC1CCCc2c1c1cc(OC)ccc1n2C (configuration not stated)
3 | 50000 nM |  | 5700 | Not Active |  |  | Cn1c2c(c3ccccc31)C(CNC(=O)C1CCC1)CC2 (configuration not stated)
4 | 10000 nM | 258 | 24 |  |  |  | COc1ccc2c(c1)c1c(n2C)CCCCC1CNC(C)=O (configuration not stated)
5 | 15000 nM |  | 4460 | Not Active |  |  | Cn1c2c(c3ccccc31)C(CNC(=O)C1CC1)CCC2 (configuration not stated)
6 | Not Active | 6360 | 516 |  |  |  | CC(=O)NCC1CCc2c1c1ccccc1n2C (configuration not stated)
7 | 14000 nM | 335 | 23 |  |  |  | CCCC(=O)NCC1CCc2c1c1cc(OC)ccc1n2C (configuration not stated)
8 | Not Active | 0.44 | 0.378 |  |  |  | CCCC(=O)NCC1CCCc2c1c1cc(OC)ccc1n2C (configuration not stated)
9 |  | 2630 | 239 |  | Antagonist |  | CCCC(=O)NCC1CCc2c1c1ccccc1n2C (configuration not stated)
10 | 44000 nM |  | 1690 | Not Active |  |  | Cn1c2c(c3ccccc31)C(CNC(=O)C1CCC1)CCCC2 (configuration not stated)
11 | Not Active | 128 | 7.66 |  |  |  | CCC(=O)NCC1CCCc2c1c1cc(C)ccc1n2C (configuration not stated)
12 | 17000 nM |  | > 10000 | Not Active |  |  | CCCCC(=O)NCC1CCCc2c1c1ccccc1n2C (configuration not stated)
13 | 42000 nM |  | 8300 | Not Active |  |  | CCCCC(=O)NCC1CCCCc2c1c1ccccc1n2C (configuration not stated)
14 |  |  | 129 | Not Active | Antagonist |  | CCC(=O)NCC1CCCCc2c1c1ccccc1n2C (configuration not stated)
15 | 62000 nM | 305 | 27.5 |  |  |  | CCC(=O)NCC1CCCc2c1c1cc(CC)ccc1n2C (configuration not stated)
16 |  | 140 | 10.3 |  | Antagonist |  | CCCC(=O)NCC1CCCCc2c1c1cc(OC)ccc1n2C (configuration not stated)
17 | Not Active |  | > 10000 | Not Active |  |  | Cn1c2c(c3ccccc31)C(CNC(=O)C(F)(F)F)CCCC2 (configuration not stated)

Row | IC50 (Melanophore [1]) | EC50 (Melanophore [2]; Xenopus laevis, Melanophore) [nM] | Ki (Melatonin receptor) [nM] | EC50 (Melanophore [3]) | IC50 (Melanophore [4]) | EC50 (Melanophore [2]; melanophore) [nM] | Compound
18 |  | 4040 | 272 |  | Antagonist |  | CCC(=O)NCC1CCc2c1c1ccccc1n2C (configuration not stated)
19 | Not Active | 132 | 82 |  |  |  | CCCCC(=O)NCC1CCCc2c1c1cc(OC)ccc1n2C (configuration not stated)
20 | 46000 nM |  | > 10000 | Not Active |  |  | CCCCC(=O)NCC1CCc2c1c1ccccc1n2C (configuration not stated)
21 | 39000 nM |  | 471 | Not Active |  |  | CCCCC(=O)NCC1CCCCc2c1c1cc(OC)ccc1n2C (configuration not stated)
22 | 59000 nM |  | 5100 | Not Active |  |  | Cn1c2c(c3ccccc31)C(CNC(=O)C1CC1)CC2 (configuration not stated)
23 | 54000 nM |  | 424 | Not Active |  |  | CC(=O)NCC1CCCCc2c1c1ccccc1n2C (configuration not stated)
24 | Not Active | 966 | 215 |  |  |  | CCCC(=O)NCC1CCCc2c1c1ccccc1n2C (configuration not stated)
25 | 56000 nM |  | 1220 | Not Active |  |  | Cn1c2c(c3ccccc31)C(CNC(=O)C1CC1)CCCC2 (configuration not stated)
26 | 35000 nM |  | > 10000 | Not Active |  |  | Cn1c2c(c3ccccc31)C(CNC(=O)C(F)(F)F)CCC2 (configuration not stated)
27 | 53000 nM |  | 84 | Not Active |  |  | CCCC(=O)NCC1CCCCc2c1c1ccccc1n2C (configuration not stated)
28 | Not Active |  | > 10000 | Not Active |  |  | Cn1c2c(c3ccccc31)C(CNC(=O)C(F)(F)F)CC2 (configuration not stated)
29 | 6400 nM |  | 708 | Not Active |  |  | CC(=O)NCC1CCCc2c1c1ccccc1n2C (single isomer, unassigned; (+))
30 | Not Active |  | 201.5 | Not Active |  |  | CCC(=O)NCC1CCCCc2c1c1cc(OC)ccc1n2C (single isomer, unassigned; (+))
31 |  |  | 40 |  |  | 189 | CC(=O)NCC1CCCc2c1c1ccccc1n2C (single isomer, unassigned; (-))
32 | Not Active |  | 227 |  |  | 599 | CC(=O)NCC1CCCc2c1c1ccccc1n2C (stereo in doubt; 9a)
33 |  |  | 6.5 |  |  | 118 | CCC(=O)NCC1CCCCc2c1c1cc(OC)ccc1n2C (stereo in doubt; 11i(-))
34 |  | 91 | 7 |  | Antagonist |  | CCC(=O)NCC1CCCCc2c1c1cc(OC)ccc1n2C (stereo in doubt; 11i)

Further lines, the compound ahead of its results:

Row | Compound | IC50 (Melanophore [1]) | EC50 (Melanophore [2]; Xenopus laevis, Melanophore) [nM] | Ki (Melatonin receptor) [nM] | EC50 (Melanophore [3]) | IC50 (Melanophore [4]) | EC50 (Melanophore [2]; melanophore) [nM]
35 | Cn1c2c(c3cc(OC(F)(F)F)ccc31)C(CNC(=O)C1CCC1)CCC2 (configuration not stated) | 41000 nM |  | 1240 | Not Active |  | 
36 | CCC(=O)NCC1CCCc2c1c1cc(OC(F)(F)F)ccc1n2C (configuration not stated) | 6000 nM | 733 | 40.2 |  |  | 
37 | Cn1c2c(c3cc(Cl)ccc31)C(CNC(=O)C1CC1)CCC2 (configuration not stated) | 33000 nM | 1510 | 131.6 |  |  | 
38 | CC(=O)NCC1CCCc2c1c1cc(Cl)ccc1n2C (configuration not stated) | Not Active | 5.2 | 2.12 |  |  | 
39 | CC(=O)NCC1CCCc2c1c1cc(C)ccc1n2C (configuration not stated) | Not Active | 108 | 16.1 |  |  | 
40 | Cc1ccc2c(c1)c1c(n2C)CCCC1CNC(=O)C1CCC1 (configuration not stated) | Not Active | 1450 | 555 |  |  | 
41 | COc1ccc2c(c1)c1c(n2C)CCCCC1CNC(=O)C1CC1 (configuration not stated) | 43000 nM | 470 | 44.7 |  |  | 
42 | COc1ccc2c(c1)c1c(n2C)CCC1CNC(=O)C1CC1 (configuration not stated) | 11000 nM |  | 459 | Not Active |  | 
43 | CCC(=O)NC1CCc2[nH]c3ccc(OC)cc3c2C1 (configuration not stated) | Not Active | 7 |  |  |  | 
44 | COc1ccc2[nH]c3c(c2c1)CC(NC(=O)C1CC1)CC3 (configuration not stated) | Not Active | 195 | 143 |  |  | 
45 | O=C(NC1CCc2[nH]c3ccccc3c2C1)C(F)(F)F (configuration not stated) | 43000 nM |  |  | Not Active |  | 
46 | CCCC(=O)NC1CCc2[nH]c3ccc(OC)cc3c2C1 (configuration not stated) | Not Active | 25 |  |  |  | 
47 | O=C(CBr)NC1CCc2[nH]c3ccccc3c2C1 (configuration not stated) | 39000 nM |  |  | Not Active |  | 
48 | COc1ccc2c(c1)c1c(n2C)CCCC1CNC(=O)C1CCC1 (configuration not stated) | Not Active | 139 | 271 |  |  | 
49 | COc1ccc2c(c1)c1c(n2C)CCCCC1CNC(=O)C1CCC1 (configuration not stated) | 18000 nM |  | 144.8 | Not Active |  | 
50 | CC(=O)NCC1CCCc2c1c1cc(OC(F)(F)F)ccc1n2C (configuration not stated) | 42000 nM | 2030 | 141.7 |  |  | 
51 | Cn1c2c(c3cc(Cl)ccc31)C(CNC(=O)C1CCC1)CCC2 (configuration not stated) | 14000 nM |  | 187.2 | Not Active |  | 
52 | COc1ccc2c(c1)c1c(n2C)CCC1CNC(C)=O (configuration not stated) | Not Active | 423 | 161 |  |  | 

Row | Compound | IC50 (Melanophore [1]) | EC50 (Melanophore [2]; Xenopus laevis, Melanophore) [nM] | Ki (Melatonin receptor) [nM] | EC50 (Melanophore [3]) | IC50 (Melanophore [4]) | EC50 (Melanophore [2]; melanophore) [nM]
53 | COc1ccc2c(c1)c1c(n2C)CCCC1CNC(=O)C(F)(F)F (configuration not stated) | Not Active | 2.1 | 1.98 |  |  | 
54 | COc1ccc2[nH]c3c(c2c1)CC(NC(=O)CBr)CC3 (configuration not stated) | 11000 nM | 32 |  |  |  | 
55 | CCCC(=O)NC1CCc2[nH]c3ccccc3c2C1 (configuration not stated) | Not Active | 12600 |  |  |  | 
56 | CCC(Br)C(=O)NC1CCc2[nH]c3ccccc3c2C1 (configuration not stated) | 32000 nM |  | > 10000 | Not Active |  | 
57 | COc1ccc2[nH]c3c(c2c1)CC(NC(C)=O)CC3 (configuration not stated) | Not Active | 32 |  |  |  | 
58 | CCC(=O)NC1CCc2[nH]c3ccccc3c2C1 (configuration not stated) | Not Active | 3270 |  |  |  | 
59 | COc1ccc2[nH]c3c(c2c1)CC(NC(=O)C(F)(F)F)CC3 (configuration not stated) | Not Active | 32 |  |  |  | 
60 | CC(=O)NC1CCc2[nH]c3ccccc3c2C1 (configuration not stated) | 64000 nM |  |  | Not Active |  | 
61 | COc1ccc2c(c1)c1c(n2C)CCCC1CNC(=O)C1CC1 (configuration not stated) | 48000 nM | 119 | 30 |  |  | 
62 | O=C(NCCc1c(-c2ccccc2)[nH]c2ccccc12)C1CCC1 | 3400 nM |  | 565 | Not Active |  | 
63 | CCC(=O)NCC1CCc2c1c1cc(OC)ccc1n2C (single isomer, unassigned; (+)) | Not Active |  | 243 |  |  | 789
64 | COc1ccc2c(c1)c1c(n2C)CCCC1CNC(C)=O (single isomer, unassigned; (+)) |  |  | 48.4 |  |  | 14.8
65 | CCC(=O)NCC1CCc2c1c1cc(OC)ccc1n2C (single isomer, unassigned; (-)) |  |  | 1.7 |  |  | 3.4
66 | COc1ccc2c(c1)c1c(n2C)CCCC1CNC(C)=O (single isomer, unassigned; (-)) |  |  | 0.372 |  |  | 0.3
67 | COc1ccc2c(c1)c1c(n2C)CCCC1CNC(C)=O (stereo in doubt; 9g) | Not Active |  |  |  |  | 0.7
68 | CCC(=O)NCC1CCc2c1c1cc(OC)ccc1n2C (stereo in doubt; 10i) |  |  | 16 |  |  | 408
69 | CC(=O)NCCc1c(Cc2ccccc2)[nH]c2ccccc12 [LUZINDOLE] | 2100 nM |  | 1606 | Not Active |  | 
70 | COc1ccc2[nH]cc(CCNC(C)=O)c2c1 [MELATONIN] | Not Active | 0.23 |  |  |  | 
